Data on four substances can be found in patent publication US6699983B1, “Integrin-linked kinase and its uses” (Sunnybrook Health Sciences Centre, priority 1995, dated 2004).

In experiment [1] the test system is ILK. Nature of the experiment: ILK activation by insulin in IEC-18 cells (immune complex kinase assay, MBP substrate). The following applies: quiescent, serum-starved IEC-18 cells. Type of experiment: cell-based, rat. The protocol: Assessment of ILK activation by insulin on IEC-18 cells. IEC 18 cells are rat colon epithelial cells that are cultured routinely in α-MEM medium supplemented with insulin (10 mg/liter), glucose 3.6 g/liter, and 5% FCS. When IEC 18 cells are grown to 80% confluence, they are serum starved for 18 hours prior to activation by insulin. Before addition of insulin, media are removed and 4 ml of α-MEM+insulin 6 μM is added to the 100 mm dishes. P13 kinase inhibitors such as LY294002 at 50 μM or wortmannin at 200 nM are added optionally to block P13 kinase dependent ILK activation. At the designated times, dishes are washed 3× with ice cold PBS and cells are lysed in 500 μl lysis buffer: 150 mM NaCI, 1% NP-40, 0.5% sodium deoxycholate, 50 mM Hepes pH 7.5, 10 μg/ml leupeptin, 1 mM PMSF, 2.5 μl aprotinin/mi lysis buffer, NaF 5 mM, Sodium vanadate 1 mM. After assessment of protein concentration by Bradford assay, 500 μl samples containing 200 μg of proteins are incubated for 2 hrs at 4° C. with 20 μl of Protein A-Sepharose to preadsorb the non specific kinases. The lysate is then incubated overnight with 2 μg of rabbit anti ILK antiserum at 4° C. under rotation.
The immunocomplexes are then captured by incubating the lysate with 15 μl of Protein A Sepharose for 2 hrs at 4° C. […] Phosphorylation level of MBP is assessed by phosphorimager analysis or exposure to an X ray film.

For experiment [2], the target named is T1, ILK (Homo sapiens, UniProt Q13418).
T1 construct: GST
T1 sequence (Q13418 1-452): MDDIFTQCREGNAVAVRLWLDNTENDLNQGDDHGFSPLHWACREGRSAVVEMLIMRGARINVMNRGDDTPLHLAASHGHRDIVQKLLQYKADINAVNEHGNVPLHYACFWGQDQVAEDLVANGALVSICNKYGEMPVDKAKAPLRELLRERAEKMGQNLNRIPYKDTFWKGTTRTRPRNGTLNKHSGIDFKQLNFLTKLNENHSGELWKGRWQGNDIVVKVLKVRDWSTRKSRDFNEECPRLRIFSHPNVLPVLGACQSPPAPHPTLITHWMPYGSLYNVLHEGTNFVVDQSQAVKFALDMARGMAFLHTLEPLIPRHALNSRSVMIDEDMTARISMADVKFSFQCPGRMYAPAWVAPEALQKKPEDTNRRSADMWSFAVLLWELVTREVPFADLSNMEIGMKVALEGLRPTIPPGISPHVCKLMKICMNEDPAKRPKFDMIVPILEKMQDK
Nature of the experiment: Regulation of ILK kinase by phosphoinositides in vitro (ILK5-GST, MBP substrate). It is filed as biochemical. To be noted: lipid vesicles with phosphatidylserine and phosphatidylcholine, 30° C. The protocol:
Assessment of regulation of ILK kinase by phosphoinositides. Ptdlns(3)P, Ptdins(3,4)P2 and Ptdlns(3,4,5)P3 were dried under nitrogen and resuspended at 0.1 mM in Hepes 10 mM, pH 7. 0 with phosphatidylserineand phosphatidylcholine, both at 1 mM. The lipid suspensions were vortexed and further sonicated for 20 min in order to generate unilamellar vesicles. 11 μl of ILK5-GST in kinase buffer were combined to 4 μl of lipids and 25 μl of kinase reaction solution containing 2.5 μl of MBP and 5 μCi of γ^32 P-ATP. The reaction proceeded for […] at 30° C. The reaction was stopped by adding an equal volume of 2× sample buffer. The samples were run on a 12% non reducing SDS-PAGE gel.

For the substance insulin, the “stimulation of ILK activity” value with ILK [1] is “rapidly stimulated”.

Consider “phosphatidylinositol (3,4,5) trisphosphate [Ptdlns(3,4,5)P3]”, for which, at ILK [2], the “ILK activity in vitro in the presence of phosphoinositide” value (“ILK activity in vitro in the presence” for short) is given as “stimulated”.

On to “phosphatidylinositol(3) monophosphate [Ptdlns(3)P]”, for which, at ILK [2], the “ILK activity in vitro in the presence” value is “not”.

As for “phosphatidylinositol(3,4) bisphosphate [Ptdlns(3,4)P2]”, the “ILK activity in vitro in the presence” value on ILK [2] was “not”.
